These results are taken from ChEMBL document CHEMBL1150902, “Certain norditerpenoid alkaloids and their cardiovascular action” (1998).

In assay [1] the test system is Rattus norvegicus. Briefly: Cardiovascular activity in anesthetized Sprague-Dawley rat assessed as reduction in blood pressure at 400 ug/kg, iv. It is filed as functional. Also on record: scale not given: the % may be the effect or the level left.
Assay [2] deals with Rattus norvegicus. Put plainly: Cardiovascular activity in anesthetized Sprague-Dawley rat assessed as reduction in blood pressure at 200 ug/kg, iv. Also on record: scale not given: the % may be the effect or the level left. Type of assay: functional.
The test system of assay [3] is Rattus norvegicus. Briefly: Cardiovascular activity in anesthetized Sprague-Dawley rat assessed as reduction in heart rate at 200 ug/kg, iv. Also on record: scale not given: the % may be the effect or the level left. Type of assay: functional.
The test system of assay [4] is Rattus norvegicus. Put plainly: Cardiovascular activity in anesthetized Sprague-Dawley rat assessed as reduction in heart rat at 400 ug/kg, iv. It is filed as functional. Also on record: scale not given: the % may be the effect or the level left.
Assay [5] relates to Rattus norvegicus. Put plainly: Cardiovascular activity in anesthetized Sprague-Dawley rat assessed as induction of cardiac arrhythmia at 400 ug/kg, iv. It is filed as functional, organism-based. To be noted: Heart.
Assay [6] deals with Rattus norvegicus. Put plainly: Cardiovascular activity in anesthetized Sprague-Dawley rat assessed as induction of cardiac arrhythmia at 200 ug/kg, iv. Type of assay: functional, organism-based. To be noted: Heart.
Assay [7] deals with Canis familiaris. Briefly: Cardiovascular activity in dog assessed as increase in cardial vagal afferent nerve activity at 150 ug/kg, iv. Type of assay: functional, Canis lupus familiaris.
For assay [8], the system named is Canis familiaris. Put plainly: Cardiovascular activity in dog assessed as decrease in cardial vagal efferent nerve activity at 150 ug/kg, iv. It is filed as functional, Canis lupus familiaris. Also on record: scale not given: the % may be the effect or the level left.

The structures appear in SMILES notation. The source made the active and inactive calls. No cut-off for these calls is given here.

For `CC/C=C\C/C=C\C/C=C\CCCCCCCCC(=O)O[C@]12C[C@H](OC)[C@H]3C[C@H]([C@@H]1[C@H]3OC(=O)c1ccc(OC)c(OC)c1)[C@@]13C4[C@@H]2[C@H](OC)[C@@H]1[C@](COC)(CN4CC)[C@H](O)C[C@@H]3OC`, the Activity in the assay on Rattus norvegicus [1] amounted to 53.4%; with Rattus norvegicus [2], 30.3%; with Rattus norvegicus [3], 8.5%; in the assay with Rattus norvegicus [4], 24.5%.
For the compound `CC[N+]1([O-])C[C@]2(COC)CC[C@H](OC)[C@]34C1[C@H]([C@H](OC)[C@H]23)[C@@]1(OC(C)=O)C[C@H](OC)[C@@]2(OC(C)=O)C[C@@H]4[C@@H]1[C@H]2OC(=O)c1ccccc1` (stereo not given in full), the Activity in the assay with Rattus norvegicus [1] worked out at 13.4%; with Rattus norvegicus [2], 0%; in the assay on Rattus norvegicus [3], 3.8%; in the assay with Rattus norvegicus [4] it was 8.7%.
Turning to `CCCCCCCCCCCCCCCCCC(=O)O[C@]12C[C@H](OC)[C@H]3C[C@H]([C@@H]1[C@H]3OC(=O)c1ccc(OC)c(OC)c1)[C@@]13C4[C@@H]2[C@H](OC)[C@@H]1[C@](COC)(CN4CC)[C@H](O)C[C@@H]3OC`, the Activity was determined as 53.4% with Rattus norvegicus [1], 15.3% in the assay with Rattus norvegicus [2], 0% in the assay on Rattus norvegicus [3] and 24.5% in the assay with Rattus norvegicus [4].
Regarding `CC[N+]1([O-])C[C@]2(C)CC[C@H](OC)[C@]34C1[C@H]([C@@H](O)[C@H]23)[C@@]1(O)CC[C@H]2C[C@@H]4[C@@H]1C(=O)O2` (stereo not given in full), the Activity with Rattus norvegicus [1] came out at 7.6%; in the assay on Rattus norvegicus [2] it was 28.1%; in the assay with Rattus norvegicus [3], 18.8%; with Rattus norvegicus [4], 8.9%.
In the case of `CCN1C[C@@]2(COC)[C@H]3[C@@H](OC)[C@H]4C1[C@]3([C@@H](OC)C[C@H]2OC(C)=O)[C@@H]1C[C@H]2[C@H](OC(=O)c3ccc(OC)c(OC)c3)[C@@H]1[C@]4(OC(C)=O)C[C@@H]2OC`, the result with Rattus norvegicus [5] and in the assay on Rattus norvegicus [6] was Active.
Regarding `CCN1C[C@]2(COC)CC[C@H](OC)[C@@]34C1[C@@H](C1=C[C@H](OC)[C@@]5(O)C[C@@H]3[C@@H]1[C@H]5OC(=O)c1ccccc1)[C@H](OC)[C@H]24` [PYRODELPHININE], the Activity in the assay with Rattus norvegicus [1] is 14.3%; in the assay on Rattus norvegicus [2], 23.1%; with Rattus norvegicus [3], 7.7%; with Rattus norvegicus [4], 8.1%.
Turning to `CCN1C[C@]2(OC(=O)c3ccccc3NC(C)=O)CC[C@H](OC)[C@]34C1[C@H](C[C@H]23)[C@@]12C[C@H](OC)[C@H]3C[C@@H]4[C@]1(OCO2)[C@H]3OC`, the Activity in the assay on Rattus norvegicus [1] turned out to be 16.4%; with Rattus norvegicus [2] it was 26%; in the assay with Rattus norvegicus [3], 5.7%; in the assay on Rattus norvegicus [4], 5.6%.
Taken in the same sequence, the figures for `CCN1C[C@]2(COC)CC[C@H](OC)[C@]34C1[C@H]([C@H](OC)[C@H]23)[C@@]1(OC(=O)c2ccc(N)cc2)C[C@H](OC)[C@@]2(O)C[C@@H]4[C@@H]1[C@H]2OC(=O)c1ccccc1` were 38%, 42.4%, 8.4% and 14.8%.
Take `CCN1C[C@]2(OC(=O)c3ccccc3N)CC[C@H](OC)[C@]34C1[C@H](C[C@H]23)[C@@]1(O)C[C@H](OC)[C@H]2C[C@@H]4[C@]1(O)[C@H]2OC`: the Activity with Rattus norvegicus [1] turned out to be 57.6%; with Rattus norvegicus [2], 27.2%; with Canis familiaris [7], 40%; in the assay with Rattus norvegicus [3], 12.7%; with Rattus norvegicus [4] it was 14.8%; with Canis familiaris [8], 23.5%.
As to `CCN1C[C@@]2(COC)[C@H]3[C@@H](OC)[C@H]4C1[C@]3([C@@H](OC)C[C@H]2OC(C)=O)[C@@H]1C[C@]2(OC(C)=O)[C@@H](OC)C[C@@]4(OC(C)=O)[C@H]1[C@H]2OC(=O)c1ccc(OC)c(OC)c1`, the Activity in the assay with Rattus norvegicus [1] is 0%; with Rattus norvegicus [2], 13.2%; in the assay with Rattus norvegicus [3], 5.4%; in the assay on Rattus norvegicus [4], 0%.
Take `CCN1C[C@]2(COC)CC[C@H](OC)[C@]34C1[C@H]([C@H](OC)[C@H]23)[C@@]1(OC(=O)/C=C/c2ccc(O)c(OC)c2)C[C@H](OC)[C@@]2(O)C[C@@H]4[C@@H]1[C@H]2OC(=O)c1ccccc1`: the Activity in the assay on Rattus norvegicus [1] is given as 10.6%; with Rattus norvegicus [2], 8.8%; with Rattus norvegicus [3] it was 8.3%; in the assay on Rattus norvegicus [4], 8.3%.
Take `CCN1C[C@]2(COC)CC[C@H](OC)[C@]34C1[C@H]([C@H](OC)[C@H]23)[C@@]1(OC(=O)c2cccc3cc5ccccc5cc23)C[C@H](OC)[C@@]2(O)C[C@@H]4[C@@H]1[C@H]2OC(=O)c1ccccc1`: the Activity in the assay on Rattus norvegicus [1] amounted to 0%; in the assay with Rattus norvegicus [2], 20.8%; in the assay with Rattus norvegicus [3], 4.2%; in the assay on Rattus norvegicus [4], 2%.
As for `CCN1C[C@]2(COC)CC[C@H](OC)[C@]34C1[C@H](C[C@H]23)[C@H]1C[C@@H](OC)[C@@]2(O)C[C@@H]4[C@@H]1[C@H]2OC(=O)c1ccccc1`, the Activity in the assay on Rattus norvegicus [1] was 27.6%; in the assay on Rattus norvegicus [2], 22.6%; in the assay on Rattus norvegicus [3] it was 0%; in the assay with Rattus norvegicus [4], 3%.
As for `CCN1C[C@]2(OC(=O)c3ccccc3N)CC[C@H](OC)[C@]34C1[C@H](C[C@H]23)[C@@]1(OC(C)=O)C[C@H](OC)[C@H]2C[C@@H]4[C@]1(OC(C)=O)[C@H]2OC`, the Activity in the assay on Rattus norvegicus [1], with Rattus norvegicus [2], with Rattus norvegicus [3] and in the assay on Rattus norvegicus [4] was 0% throughout.
As to `CCN1C[C@]2(COC)CC[C@H](OC)[C@]34C1[C@H]([C@H](OC)[C@H]23)[C@@]1(OC(=O)c2cccc3cc5ccccc5cc23)C=C[C@@]2(O)C[C@@H]4[C@@H]1[C@H]2OC(=O)c1ccccc1`, the Activity in the assay on Rattus norvegicus [1] stood at 9.2%; with Rattus norvegicus [2] it was 0%; with Rattus norvegicus [3], 3.7%; in the assay with Rattus norvegicus [4], 3.8%.
